Measured values taken from patent US9889234B2, “Scaffold for hard tissue regeneration containing active ingredient for treating osteoporosis and preparing method thereof” (KOREA INSTITUTE OF MACHINERY AND MATERIALS, priority 2014, dated 2018).

Experiments:
[1] = system: RAW 264.7 cells, the multinuclear osteoclasts treated with RANKL; test: Osteoclast proliferation activity, drug in medium; format: cell-based; settings: for inhibition of osteoclast proliferation, ranking among Quercetein, Genistein, Alendronate: same dose; for proliferation of osteoclasts: compared with the case not treated, 1 μM or 200 μM
[2] = Drug releasing characteristics of the active ingredient from the scaffold; format: physicochemical
Procedure: To evaluate the drug releasing characteristics of the active ingredient included in the scaffold, the scaffold for hard tissue regeneration (containing Quercetein by 200 μm/scaffold) prepared in Example 1 was dipped in body fluid like PBS (phosphate buffered saline) or de-ionized water in a 37° C. shaker. Sampling of the solution was performed hourly and the concentration of Quercetein released in the solution was measured. Quercetein is a hydrophobic material, so that it is very difficult to detect the concentration by dissolving. To evaluate the drug releasing activity in a solution where the active material is dissolved, the experiment was equally performed with ethanol, the dissolving solvent.
The following experiment was performed by the same manner as described in Example <1-1> except that the scaffold for hard tissue regeneration (containing Genistein by 200 μm/scaffold) prepared in Example 3 instead of the scaffold for hard tissue regeneration (containing Quercetein by 200 μm/scaffold) prepared in Example 1.

[3] = Solubility of the active ingredient; format: physicochemical
MC3T3-E1 cells = test: Osteoblast proliferation activity, MTS assay, drug in medium; format: cell-based
Procedure: MC3T3-E1 cells (MC3T3-E1 Subclone 4, ATCC CRL-2593, obtained from ATCC) were cultured in α-MEM (α-Minimum Essential Medium, GIBCO) supplemented with FBS (Fetal Bovine Serum) and penicillin/streptomycin under the standard culture condition (37° C., 5% CO2). When the cells were grown to 70˜80% confluency, the cells were trypsinized. Then, the cells were collected by centrifugation.
The collected MC3T3-E1 cells were seeded at the density of 1.0×10^4 cells, followed by standard culture for 2 hours. The medium containing Quercetein at the concentrations of 0, 1, 10, 50, 100, and 200 μm was added thereto.
To observe the metabolic activity of the seeded MC3T3-E1 cells, colorimetric 3-(4,5-dimethylthiazole-2-yl)-5-(3-carboxymethoxyphenol)-2-(4-sulfophenyl)-2H-tetrazolium (MTS) assay (CellTiter 96® AQeous One solution Cell Proliferation Assay, Promega) was performed according to the manufacturer's instruction. The MTS tetrazolium compound is converted biologically and dissolved in the tissue culture medium by the cells into a formazan product displaying highest absorbance at 490 nm.
The following experiment was performed by the same manner as described in Experimental Example <2-1> except that Genistein was used instead of Quercetein.

[4] = determined from the proliferation of osteoblasts

| SMILES | inhibition of osteoclast proliferation, ranking among Quercetein, Genistein, Alendronate ([1]; 200 μM) | proliferation of osteoclasts [1] | Quercetein released ([2]; from scaffold of Example 1 (200 μm/scaffold), ethanol, 37° C. shaker, over 40 days, without early acute release) [%] | Quercetein released ([2]; from scaffold of Example 1, de-ionized water and PBS, 37° C., early 20 days) [%] | Quercetein released ([2]; from scaffold of Example 1, de-ionized water and PBS, 37° C., over 68 days) | Quercetein released ([2]; from scaffold, de-ionized water and PBS, over 60 days) [%] | solubility in an aqueous solution [3] | proliferation of osteoblasts (MC3T3-E1 cells; 1 μM, day 3 and day 5) | effect on the proliferation of osteoblasts (MC3T3-E1 cells; 200 μM, day 3 and day 5, comparison with Alendronate) | proliferation of osteoblasts (MC3T3-E1 cells; concentration increased from 1 to 200 μM, vs non-treated group, day 1, 3, 5) | preferable concentration (osteoblast proliferation) (MC3T3-E1 cells; [4]) | inhibition of osteoclast proliferation, ranking among Quercetein, Genistein, Alendronate ([1]; 1 μM) | Genistein released ([2]; from scaffold of Example 3 (200 μm/scaffold), ethanol, early 5 days) [%] | Genistein released ([2]; from scaffold of Example 3, de-ionized water and PBS, over 55 days, without early acute release) [%] | solubility in ethanol compared with that of Quercetein ([3]; ethanol, from comparison of release results) | promoting effect on osteoblast proliferation relative to Quercetein (MC3T3-E1 cells; 1 μM, day 3 and day 5) | proliferation of osteoblasts (MC3T3-E1 cells; concentration increased from 1 to 10 μM, vs non-treated group) | proliferation of osteoblasts (MC3T3-E1 cells; concentration over 10 μM) | most preferable concentration (osteoblast proliferation) (MC3T3-E1 cells; [4]) [µM] |
| --- | --- | --- | --- | --- | --- | --- | --- | --- | --- | --- | --- | --- | --- | --- | --- | --- | --- | --- | --- |
| O=c1c(O)c(-c2ccc(O)c(O)c2)oc2cc(O)cc(O)c12 [Quercetein] | most excellent in inhibiting the proliferation of osteoclasts | significantly inhibited | 100 | 10 | approximately 50% | 50 | low | promoted the proliferation of osteoblasts | increased the proliferation significantly | increased Quercetein dose-dependently | 1˜200 μM | – | – | – | – | – | – | – | – |
| O=c1c(-c2ccc(O)cc2)coc2cc(O)cc(O)c12 [Genistein] | – | significantly inhibited | – | – | – | – | low | promoted the proliferation of osteoblasts | – | – | 1˜10 μM | most excellent in inhibiting the proliferation of osteoclasts | 100 | 60 | even higher | greater than that of Quercetein | increased | rather inhibited | 1 |
